Like-named read-outs stand apart in the source and are kept apart here.
Columns and labels:
[1] = tested on: human diploid fibroblasts BJ; assay: Calcein AM cytotoxicity assay, BJ; assay type: cell-based; settings: 72 hours
Source text: (§1) Absence of toxic effects against mammalian (especially human) cell lines in a wide concentration range is one of the requirements on compounds intended for use in agriculture. Because toxic compounds negatively influence metabolic processes in cells, many standard cytotoxicity assays are based on measurement of metabolisation rate of various artificial substrates. Resulting product is then quantified e.g. by means of spectrometry. The assays can be easily modified for use in 96-well plates. For evaluation of cytotoxic effect of the novel substituted 6-(alkylbenzylamino)purine derivatives of this invention, a microtiter assay based on quantification of metabolisation of Calcein AM was used. The assay is widely used in drug screening programs and in chemosensitivity testing. In live cells, Calcein AM is enzymatically hydrolysed and accumulation of resulting calcein is manifested by green fluorescence.
(§2) The cells were maintained in Nunc/Corning 80 cm^2 plastic tissue culture flasks and cultured in cell culture medium (DMEM with 5 g/l glucose, 2 mM glutamine, 100 U/ml penicillin, 100 μg/ml streptomycin, 10% fetal calf serum and sodium bicarbonate).
(§3) The cell suspensions were prepared and diluted according to the particular cell type and the expected target cell density (10^4 cells per well based on cell growth characteristics) and pippetted (80 μl) into 96-well plates. Inoculates were allowed a pre-incubation period of 24 hours at 37° C., 100% humidity and 5% CO2 for stabilisation. Tested compounds were added in total volume of 20 μl of water at time zero. Usually, test compound was evaluated at six 3-fold dilutions. In routine testing, the highest concentration tested was 100 μM, the eventual changes depended on physico-chemical characteristics of the respective compound. All drug concentrations were tested in triplicates. Incubations of cells with the test compounds lasted for 72 hours at 37° C., in 5% CO2 atmosphere and 100% humidity. At the end of incubation period Calcein AM (Molecular Probes) in PBS was added into final concentration of 1 μg/ml. After another 1 hour of incubation fluorescence (FD) was measured with the Labsystem FIA Reader Fluoroscan Ascent (UK). Growth inhibition (GI) was estimated using the following equitation: GI=(mean FDdrug exposed wells−mean FDblank)/(mean FDcontrol wells−mean FDblank)×100%.

[2] = tested on: osteosarcoma cell line HOS; assay: Calcein AM cytotoxicity assay, HOS; assay type: cell-based, human; settings: 72 hours
Source text: as §1, §2, §3

[3] = tested on: erytroid leukemia cell line K-562; assay: Calcein AM cytotoxicity assay, K-562; assay type: cell-based, human
Source text: as §1, §2, §3

[4] = tested on: Human diploid fibroblasts SNF25; assay: MTT viability assay on human diploid fibroblasts; assay type: cell-based; settings: SNF25 passage 19, 72 hours, read-out: IC50 (reduction in mitochondrial activity, MTT)
Protocol: MTT is a standard colorimetric assay for measurement of proliferation and survival of the cells. Yellow MTT is reduced into violet formazan in metabolically active cells. The amount of formazan is measured by spectrometry. Human diploid fibroblasts SNF25 (passage 19) were seeded in 96-well plate (5000 cells per well). After 6 hours, the cultivation medium (DMEM containing 5 g/l glucose, 2 mM glutamin, 100 U/ml penicillin, 100 μg/ml streptomycin and 10% fetal calf serum) was removed and fresh medium containing a test compound in concentration range of 0-100 μM was added. The concentration was adjusted in cases of compounds with limited solubility. Each concentration was tested in 5 replicates. MTT was added to the cells after 72 hours into final concentration of 0.5 mg/ml. Incubation time was 3 hours. Resulting MTT was disolved in DMSO and absorbance was measured. The cytotoxic effect was estimated as IC=(Awells with compounds/Acontrol wells)×100%.

[5] = tested on: breast carcinoma cell line MCF-7; assay: Calcein AM cytotoxicity assay, MCF-7; assay type: cell-based, human
Source text: as §1, §2, §3

melanoma cell line G-361 = assay: Calcein AM cytotoxicity assay, G-361; assay type: cell-based, human
Source text: as §1, §2, §3

[6] = tested on: cytokinin receptors CRE1/AHK4 and AHK3; assay: Binding assay with membranes of E. coli expressing cytokinin receptors, competition with 3HtZ; parameters: species or system Arabidopsis; settings: negative control, 1000-fold higher concentration than compound 8
Protocol: Isolation of E. coli membranes and binding assays were carried out as previously described by Romanov et al. (Romanov et al. Analytical Biochemistry 347:129-134, 2005).

CRE1/AHK4 = target: T1, CRE1/AHK4 (Arabidopsis thaliana, UniProt Q9C5U0); assay: Activation of cytokinin receptor CRE1/AHK4 in E. coli KMI001 (β-galactosidase reporter); assay type: cell-based; settings: E. coli KMI001 pIN-III-AHK4, 17 h incubation; n.i. means without interaction; read-out: EC50 CRE1/AHK4 (activation of cytokinin receptor)
T1 construct: expressed in transfected cells; host or cells: Escherichia coli KMI001, plasmid pIN-III-AHK4
Protocol: (§4) Escherichia coli strains KMI001 harbouring the plasmid pIN-III-AHK4 or pSTV28-AHK3 were grown overnight at 25° C. in M9 media enriched with 0.1% casamino acids to OD600˜1. The preculture was diluted 1:600 in 1 ml M9 medium containing 0.1% casamino acids and 1 μl stock solution of either the tested compound (10^−7 M−5×10^−5 M) or solvent control (DMSO, ethanol, methanol) were added. The cultures were further grown at 25° C. in microtiter plate, 200 μl per well. […] The cultures were centrifuged and 50 μl aliquots of the supernatant were transferred to microtiter plate containing 2 μl 50 mM 4-methyl umbelliferyl galactoside which was subsequently incubated for 1 h at 37° C. The reaction was stopped by adding 100 μl 0.2 M Na2CO3. Fluorescence was measured using a Fluoroscan Ascent (Labsystems, Finland) at the excitation and emission wavelengths of 365 and 460 nm, respectively. The OD600 of remaining culture was determined and β-galactosidase activity was calculated as nmol 4-methylumbelliferone×OD600^−1×h^−1.
(§5) The EC50 value, the compound concentration activating the receptor to 50%, was calculated from the obtained dose response curves. The compound functioning as cytokinin antagonists should not activate cytokinin signalling pathway. The values shown in Table 2 are means of three replicates and the entire test was repeated at least twice.

AHK3 = target: T2, AHK3 (Arabidopsis thaliana, UniProt Q9C5U1); assay: Activation of cytokinin receptor AHK3 in E. coli KMI001 (β-galactosidase reporter); assay type: cell-based; settings: E. coli KMI001 pSTV28-AHK3, 28 h incubation; n.i. means without interaction; read-out: EC50 AHK3 (activation of cytokinin receptor)
T2 construct: expressed in transfected cells; host or cells: Escherichia coli KMI001, plasmid pSTV28-AHK3
T2 sequence (Q9C5U1 1-1036): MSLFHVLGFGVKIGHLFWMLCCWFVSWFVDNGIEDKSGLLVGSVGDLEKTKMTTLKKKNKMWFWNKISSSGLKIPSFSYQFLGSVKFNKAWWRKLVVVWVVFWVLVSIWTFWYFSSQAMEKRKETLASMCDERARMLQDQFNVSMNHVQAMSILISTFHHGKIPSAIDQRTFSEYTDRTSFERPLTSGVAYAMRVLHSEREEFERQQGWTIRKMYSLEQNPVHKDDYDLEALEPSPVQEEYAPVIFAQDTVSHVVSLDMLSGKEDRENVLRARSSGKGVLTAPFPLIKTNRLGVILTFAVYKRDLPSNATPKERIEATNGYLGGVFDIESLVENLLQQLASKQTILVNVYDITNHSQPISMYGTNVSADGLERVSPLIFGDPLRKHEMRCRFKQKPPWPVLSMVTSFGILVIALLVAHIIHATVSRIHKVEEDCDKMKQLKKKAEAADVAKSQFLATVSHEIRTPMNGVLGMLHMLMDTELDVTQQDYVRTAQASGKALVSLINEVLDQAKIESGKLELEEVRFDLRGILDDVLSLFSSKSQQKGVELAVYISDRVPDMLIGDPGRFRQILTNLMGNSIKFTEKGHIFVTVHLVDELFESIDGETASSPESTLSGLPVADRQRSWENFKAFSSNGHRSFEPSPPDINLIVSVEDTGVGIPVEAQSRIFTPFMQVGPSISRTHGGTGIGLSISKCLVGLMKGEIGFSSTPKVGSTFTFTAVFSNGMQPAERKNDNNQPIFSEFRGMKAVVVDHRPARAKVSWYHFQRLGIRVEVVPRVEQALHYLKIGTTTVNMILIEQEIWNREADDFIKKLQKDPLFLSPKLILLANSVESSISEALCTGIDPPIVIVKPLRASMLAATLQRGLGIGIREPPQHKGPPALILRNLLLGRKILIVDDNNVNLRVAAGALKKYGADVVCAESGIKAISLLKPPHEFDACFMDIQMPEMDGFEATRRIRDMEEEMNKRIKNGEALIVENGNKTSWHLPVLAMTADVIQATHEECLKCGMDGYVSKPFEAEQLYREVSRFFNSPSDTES
Protocol: as §4, §5

T1 sequence (Q9C5U0 whole entry): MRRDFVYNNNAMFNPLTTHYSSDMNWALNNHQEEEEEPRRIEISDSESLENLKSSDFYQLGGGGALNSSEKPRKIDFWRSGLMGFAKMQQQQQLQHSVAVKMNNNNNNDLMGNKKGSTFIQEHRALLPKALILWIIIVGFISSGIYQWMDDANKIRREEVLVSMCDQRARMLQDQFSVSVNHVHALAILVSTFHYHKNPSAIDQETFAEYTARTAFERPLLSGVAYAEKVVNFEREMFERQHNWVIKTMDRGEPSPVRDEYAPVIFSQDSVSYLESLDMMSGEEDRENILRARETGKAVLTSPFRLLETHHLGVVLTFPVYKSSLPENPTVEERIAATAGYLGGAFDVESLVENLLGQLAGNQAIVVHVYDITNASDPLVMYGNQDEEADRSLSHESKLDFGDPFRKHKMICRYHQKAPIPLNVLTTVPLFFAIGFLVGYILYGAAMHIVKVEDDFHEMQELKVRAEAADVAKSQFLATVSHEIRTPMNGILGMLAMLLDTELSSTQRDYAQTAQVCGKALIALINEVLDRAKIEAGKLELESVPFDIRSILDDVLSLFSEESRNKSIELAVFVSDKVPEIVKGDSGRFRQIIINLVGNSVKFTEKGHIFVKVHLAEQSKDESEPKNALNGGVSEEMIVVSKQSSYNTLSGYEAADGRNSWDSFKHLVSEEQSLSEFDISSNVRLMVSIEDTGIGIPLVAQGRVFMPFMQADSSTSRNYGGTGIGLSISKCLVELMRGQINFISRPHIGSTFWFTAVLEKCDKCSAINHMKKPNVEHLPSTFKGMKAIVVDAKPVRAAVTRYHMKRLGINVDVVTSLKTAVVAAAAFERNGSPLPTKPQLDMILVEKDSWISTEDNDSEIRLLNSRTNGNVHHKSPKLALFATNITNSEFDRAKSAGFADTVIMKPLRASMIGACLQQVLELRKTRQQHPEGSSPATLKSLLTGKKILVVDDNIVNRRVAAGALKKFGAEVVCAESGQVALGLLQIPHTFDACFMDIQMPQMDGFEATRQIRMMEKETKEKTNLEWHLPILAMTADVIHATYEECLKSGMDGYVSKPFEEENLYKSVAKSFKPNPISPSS

SMILES | GI50 ([1]; Homo sapiens, Fibroblast) | GI50 ([2]; Homo sapiens) | GI50 ([3]; Homo sapiens, K562, 72 hours) | IC50 ([4]; Homo sapiens, Fibroblast) | GI50 ([5]; Homo sapiens, MCF7, 72 hours) | GI50 (melanoma cell line G-361; Homo sapiens, G-361, 72 hours) | effect on binding of 3HtZ [6] | GI50 [1] | GI50 [2] | GI50 ([3]; 72 hours) | IC50 [4] | GI50 ([5]; 72 hours, read-out: GI50 MCF7) | GI50 (melanoma cell line G-361; 72 hours) | EC50 (CRE1/AHK4) | EC50 (AHK3)
Nc1ncnc2nc[nH]c12 [adenine] | > 100 µM | > 100 µM | > 100 µM | > 100 µM | > 100 µM | > 100 µM | not effective at all |  |  |  |  |  |  |  | 
CC(C)=CCNc1ncnc2nc[nH]c12 [isopentenyladenine] |  |  |  |  |  |  |  | > 100 µM | > 100 µM | > 100 µM | > 100 µM | > 100 µM | > 100 µM |  | 
c1coc(CNc2ncnc3[nH]cnc23)c1 [kinetin] | > 100 µM | > 100 µM | > 100 µM | > 100 µM | > 100 µM | > 100 µM |  |  |  |  |  |  |  |  | 
Oc1cccc(CNc2ncnc3nc[nH]c23)c1 [meta-topolin] |  |  |  |  |  |  |  | > 100 µM | > 100 µM | > 100 µM | > 100 µM | > 100 µM | > 100 µM |  | 
Oc1ccccc1CNc1ncnc2nc[nH]c12 [ortho-topolin] |  |  |  |  |  |  |  | > 100 µM | > 100 µM | > 100 µM | > 100 µM | > 100 µM | > 100 µM |  | 
C/C(=C\CNc1ncnc2nc[nH]c12)CO [trans-zeatin] |  |  |  |  |  |  |  | > 100 µM | > 100 µM | > 100 µM | > 100 µM | > 100 µM | > 100 µM | 900 nM | 2100 nM

Reference: patent US20100240537A1, “Substituted 6-(alkylbenzylamino)purine derivatives for use as cytokinin receptor antagonists and preparations containing these derivatives” (priority 2007, published 2010)
